This is an account of results in patent US8445501B2, “Substituted 7-carboxamido-pyrrolo[3,2-d]pyrimidines” (Takeda GmbH, priority 2008, dated 2013).

SMILES strings stand for the structures.

For the assay, the target named is T1, human PDE5 (Homo sapiens, UniProt O76074).
T1 construct: from tissue; host or cells: platelets from fresh blood of human donors (lysate, 10,000 g supernatant)
The assay is described as follows: Inhibition of the type 5 phosphodiesterase (PDE5) activity, modified SPA test with platelet lysate. The format is biochemical. Particulars: PDE5 from human platelet lysate, 0.5 μM cGMP. Here is the method:
Method for Measuring Inhibition of the Type 5 Phosphodiesterase (PDE5) Activity:
As a source for human PDE5, platelets are used. For that purpose, 150 ml fresh blood from human donors anticoagulated with citrate [final concentration 0.3% (w/v)] is centrifuged at 200 g for 10 min to obtain the so-called platelet-rich-plasma (PRP) as a supernatant. 1/10 volume of ACD solution (85 mM Na3-citrate, 111 mM D-glucose, 71 mM citric acid, pH 4.4) is added to 9/10 volume of PRP. After centrifugation (1,400 g, 10 min) the cell pellet is resuspended in 3 ml homogenization buffer (NaCl 140 mM, KCl 3.8 mM, EGTA (ethylene glycol tetraacetic acid) 1 mM, MgCl2 1 mM, Tris-HCl 20 mM, beta-mercaptoethanol 1 mM, pH 8.2) plus protease-inhibitor mix giving rise to the final concentrations of 0.5 mM Pefablock (Roche), 10 μM Leupeptin, 5 μM Trypsininhibitor, 2 mM Benzamidin and 10 μM Pepstatin A. The suspension is sonified and thereafter centrifuged for 15 min at 10,000 g. The resulting supernatant (platelet lysate) is used for enzymatic testings.
PDE5A1 activity is inhibited by the compounds of the invention in a modified SPA (scintillation proximity assay) test, supplied by Amersham Biosciences (see procedural instructions “phosphodiesterase [3H]cAMP SPA enzyme assay, code TRKQ 7090”), carried out in 96-well microtitre plates (MTP's). The test volume is 100 μl and contains 20 mM Tris buffer (pH 7.4), 0.1 mg of BSA (bovine serum albumin)/ml, 5 mM Mg^2+, 1 μM motapizone, 10 nM PDE2 inhibitor 2-(3,4-dimethoxybenzyl)-7-[(1R,2R)-2-hydroxy-1-(2-phenylethyl)propyl]-5-methylimidazo[5,1-f][1,2,4]triazin-4(3H)-one, 0.5 μM cGMP (cyclic guanosine monophosphate) (including about 50,000 cpm of [3H]cGMP as a tracer), 1 μl of the respective compound dilution in dimethylsulfoxide (DMSO) and sufficient PDE5-containing platelet lysat (10,000×g supernatant, see above) to ensure that 10-20 wt % of the cGMP is converted under the said experimental conditions. […] After a preincubation of 5 min at 37° C., the reaction is started by adding the substrate (cGMP) and the assay is incubated for a further 15 min; after that, it is stopped by adding SPA beads (50 μl). In accordance with the manufacturer's instructions, the SPA beads had previously been resuspended in water, but are then diluted 1:3 (v/v) in water; the diluted solution also contains 3 mM […] (IBMX) to ensure a complete PDE activity stop. After the beads have been sedimented (>30 min), the MTP's are analyzed in commercially available luminescence detection de-vices. The corresponding IC50 values of the compounds for the inhibition of PDE activity are deter-mined from the concentration-effect curves by means of non-linear regression.
Compound `O=CN1CCC(NC(=O)c2c[nH]c3c(-c4c(OCC5CC5)ccc5c4OCO5)ncnc23)CC1` [Example 43, 4-(5-Cyclopropylmethoxy-benzo[1,3]dioxol-4-yl)-5H-pyrrolo[3,2-d]pyrimidine-7-carboxylic acid (1-formyl-piperidin-4-yl)-amide] gave an IC50 of 282 pM.
Next, `CCC(=O)N1CCC[C@H](NC(=O)c2c[nH]c3c(-c4c(OCC5CC5)ccc5c4OCO5)ncnc23)C1` [Example 44, 4-(5-Cyclopropylmethoxy-benzo[1,3]dioxol-4-yl)-5H-pyrrolo[3,2-d]pyrimidine-7-carboxylic acid ((S)-1-propionyl-piperidin-3-yl)-amide]: 794 pM.
On to `COCC(=O)N1CCC[C@H](NC(=O)c2c[nH]c3c(-c4c(OCC5CC5)ccc5c4OCO5)ncnc23)C1` [Example 45, 4-(5-Cyclopropylmethoxy-benzo[1,3]dioxol-4-yl)-5H-pyrrolo[3,2-d]pyrimidine-7-carboxylic acid [(S)-1-(2-methoxy-ethanoyl)-piperidin-3-yl]amide], for which the IC50 was 1550 pM.
Next, `CC(=O)N1CCC[C@H](NC(=O)c2c[nH]c3c(-c4c(OCC5CC5)ccc5c4OCO5)ncnc23)C1` [Example 46, 4-(5-Cyclopropylmethoxy-benzo[1,3]dioxol-4-yl)-5H-pyrrolo[3,2-d]pyrimidine-7-carboxylic acid ((S)-1-acetyl-piperidin-3-yl)-amide]: 1380 pM; `COCC(=O)N1CCC[C@@H](NC(=O)c2c[nH]c3c(-c4c(OCC5CC5)ccc5c4OCO5)ncnc23)C1` [Example 48, 4-(5-Cyclopropylmethoxy-benzo[1,3]dioxol-4-yl)-5H-pyrrolo[3,2-d]pyrimidine-7-carboxylic acid [(R)-1-(2-methoxy-ethanoyl)-piperidin-3-yl]amide]: 427 pM.
Next, `CC(=O)N1CCC[C@@H](NC(=O)c2c[nH]c3c(-c4c(OCC5CC5)ccc5c4OCO5)ncnc23)C1` [Example 49, 4-(5-Cyclopropylmethoxy-benzo[1,3]dioxol-4-yl)-5H-pyrrolo[3,2-d]pyrimidine-7-carboxylic acid ((R)-1-acetyl-piperidin-3-yl)-amide]: 339 pM.
Next, `COCC(=O)N[C@H]1CC[C@H](NC(=O)c2c[nH]c3c(-c4c(OCC5CC5)ccc5c4OCO5)ncnc23)CC1` [Example 50, trans-4-(5-Cyclopropylmethoxy-benzo[1,3]dioxol-4-yl)-5H-pyrrolo[3,2-d]pyrimidine-7-carboxylic acid [4-(2-methoxy-acetylamino)-cyclohexyl]-amide]: 141 pM.
Compound `COc1ccc(-c2ncnc3c(C(=O)N[C@H]4CC[C@H](NC(C)=O)CC4)c[nH]c23)c(OCC2CC2)c1` [Example 51, trans-4-(2-Cyclopropylmethoxy-4-methoxy-phenyl)-5H-pyrrolo[3,2-d]pyrimidine-7-carboxylic acid (4-acetylamino-cyclohexyl)-amide] had an IC50 of 490 pM.
Next, `COc1ccc(-c2ncnc3c(C(=O)N[C@H]4CC[C@H](NC(=O)C5CC5)CC4)c[nH]c23)c(OCC2CC2)c1` [Example 52, trans-4-(2-Cyclopropylmethoxy-4-methoxy-phenyl)-5H-pyrrolo[3,2-d]pyrimidine-7-carboxylic acid [4-(cyclopropanecarbonyl-amino)cyclohexyl]-amide]: 302 pM.
With `COCC(=O)N[C@H]1CC[C@H](NC(=O)c2c[nH]c3c(-c4ccc(OC)cc4OCC4CC4)ncnc23)CC1` [Example 53, trans-4-(2-Cyclopropylmethoxy-4-methoxy-phenyl)-5H-pyrrolo[3,2-d]pyrimidine-7-carboxylic acid [4-(2-methoxy-acetylamino)-cyclohexyl]-amide] the figure was 372 pM; with `CCOC(=O)N[C@H]1CC[C@H](NC(=O)c2c[nH]c3c(-c4ccc(OC)cc4OCC4CC4)ncnc23)CC1` [Example 54, trans-(4-{[4-(2-Cyclopropylmethoxy-4-methoxy-phenyl)-5H-pyrrolo[3,2-d]pyrimidine-7-carbonyl]-amino}-cyclohexyl)-carbamic acid ethyl ester], 417 pM.
Next, `COc1ccc(-c2ncnc3c(C(=O)N[C@H]4CC[C@@H](NC(C)=O)CC4)c[nH]c23)c(OCC2CC2)c1` [Example 55, cis-4-(2-Cyclopropylmethoxy-4-methoxy-phenyl)-5H-pyrrolo[3,2-d]pyrimidine-7-carboxylic acid (4-acetylamino-cyclohexyl)-amide]: 372 pM; `COc1ccc(-c2ncnc3c(C(=O)N[C@H]4CC[C@@H](NC(=O)C5CC5)CC4)c[nH]c23)c(OCC2CC2)c1` [Example 56, cis-4-(2-Cyclopropylmethoxy-4-methoxy-phenyl)-5H-pyrrolo[3,2-d]pyrimidine-7-carboxylic acid [4-(cyclopropanecarbonyl-amino)cyclohexyl]-amide]: 282 pM; `COCC(=O)N[C@H]1CC[C@@H](NC(=O)c2c[nH]c3c(-c4ccc(OC)cc4OCC4CC4)ncnc23)CC1` [Example 57, cis-4-(2-Cyclopropylmethoxy-4-methoxy-phenyl)-5H-pyrrolo[3,2-d]pyrimidine-7-carboxylic acid [4-(2-methoxy-acetylamino)-cyclohexyl]-amide]: 468 pM.
Compound `CCOC(=O)N[C@H]1CC[C@@H](NC(=O)c2c[nH]c3c(-c4ccc(OC)cc4OCC4CC4)ncnc23)CC1` [Example 58, cis-(4-{[4-(2-Cyclopropylmethoxy-4-methoxy-phenyl)-5H-pyrrolo[3,2-d]pyrimidine-7-carbonyl]-amino}-cyclohexyl)-carbamic acid ethyl ester] showed an IC50 of 339 pM.
In the case of `COc1ccc(-c2ncnc3c(C(=O)NC4CCN(C(C)=O)CC4)c[nH]c23)c(OCC2CC2)c1` [Example 59, 4-(2-Cyclopropylmethoxy-4-methoxy-phenyl)-5H-pyrrolo[3,2-d]pyrimidine-7-carboxylic acid (1-acetyl-piperidin-4-yl)-amide], the midpoint of inhibition, the IC50, lay at 741 pM.
Compound `COc1ccc(-c2ncnc3c(C(=O)NC4CCN(C(=O)C5CC5)CC4)c[nH]c23)c(OCC2CC2)c1` [Example 60, 4-(2-Cyclopropylmethoxy-4-methoxy-phenyl)-5H-pyrrolo[3,2-d]pyrimidine-7-carboxylic acid [1-(1-cyclopropyl-methanoyl)-piperidin-4-yl]-amide] had an IC50 of 263 pM.
Consider `COCC(=O)N1CCC(NC(=O)c2c[nH]c3c(-c4ccc(OC)cc4OCC4CC4)ncnc23)CC1` [Example 61, 4-(2-Cyclopropylmethoxy-4-methoxy-phenyl)-5H-pyrrolo[3,2-d]pyrimidine-7-carboxylic acid [1-(2-methoxy-ethanoyl)-piperidin-4-yl]amide], for which the IC50 is 525 pM.
With `CCOC(=O)N1CCC(NC(=O)c2c[nH]c3c(-c4ccc(OC)cc4OCC4CC4)ncnc23)CC1` [Example 62, 4-({1-[4-(2-Cyclopropylmethoxy-4-methoxy-phenyl)-5H-pyrrolo[3,2-d]pyrimidin-7-yl]-methanoyl}-amino)-piperidine-1-carboxylic acid ethyl ester] the figure was 309 pM.
For `COc1ccc(OCC2CC2)c(-c2ncnc3c(C(=O)N[C@H]4CC[C@H](NC(C)=O)CC4)c[nH]c23)c1` [Example 63, trans-4-(2-Cyclopropylmethoxy-5-methoxy-phenyl)-5H-pyrrolo[3,2-d]pyrimidine-7-carboxylic acid (4-acetylamino-cyclohexyl)-amide], half-maximal inhibition (IC50) was put at 912 pM.
`COc1ccc(OCC2CC2)c(-c2ncnc3c(C(=O)N[C@H]4CC[C@H](NC(=O)C5CC5)CC4)c[nH]c23)c1` [Example 64, trans-4-(2-Cyclopropylmethoxy-5-methoxy-phenyl)-5H-pyrrolo[3,2-d]pyrimidine-7-carboxylic acid [4-(cyclopropanecarbonyl-amino)cyclohexyl]-amide] gave an IC50 of 603 pM.
In turn, `COCC(=O)N[C@H]1CC[C@H](NC(=O)c2c[nH]c3c(-c4cc(OC)ccc4OCC4CC4)ncnc23)CC1` [Example 65, trans-4-(2-Cyclopropylmethoxy-5-methoxy-phenyl)-5H-pyrrolo[3,2-d]pyrimidine-7-carboxylic acid [4-(2-methoxy-acetylamino)-cyclohexyl]-amide] gave an IC50 of 1150 pM.
